According to ChEMBL document CHEMBL1201862, “PubChem BioAssay data set” (2004):
Active and inactive are the calls of the source.

Columns and labels:
Assay type in all cases: functional
[1] = biological target: Glycogen synthase kinase-3 alpha (Homo sapiens, UniProt P49840);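 also: GSK3A result taken from a broad kinome-wide kinase panel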
[2] = biological target: Dual specificity protein kinase CLK2 (Homo sapiens, UniProt P49760)
[3] = biological target: Mast/stem cell growth factor receptor Kit (Homo sapiens, UniProt P10721);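 also: KIT entry within a kinase panel assay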
[4] = biological target: Mitogen-activated protein kinase 14 (Homo sapiens, UniProt Q16539);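 also: part of a kinome-wide panel, MAPK14 entry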
[5] = biological target: Mitogen-activated protein kinase kinase kinase 20 (Homo sapiens, UniProt Q9NYL2)
[6] = biological target: 5'-AMP-activated protein kinase catalytic subunit alpha-1 (Homo sapiens, UniProt Q13131)
[7] = biological target: Ribosomal protein S6 kinase alpha-3 (Homo sapiens, UniProt P51812);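 also: measured within a kinome-wide profiling panel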
[8] = biological target: Glycogen synthase kinase-3 beta (Homo sapiens, UniProt P49841);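 also: value comes from a broad kinome profiling panel, with GSK3B as the panel member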
[9] = biological target: Cell division cycle 7-related protein kinase (Homo sapiens, UniProt O00311);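 also: value obtained from a kinome-wide kinase panel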
Aurora kinase A = biological target: T1, Aurora kinase A (Homo sapiens, UniProt O14965);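 also: value from the Navigating the Kinome kinase panel profiling, panel entry STK6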
T1 sequence (O14965 whole entry): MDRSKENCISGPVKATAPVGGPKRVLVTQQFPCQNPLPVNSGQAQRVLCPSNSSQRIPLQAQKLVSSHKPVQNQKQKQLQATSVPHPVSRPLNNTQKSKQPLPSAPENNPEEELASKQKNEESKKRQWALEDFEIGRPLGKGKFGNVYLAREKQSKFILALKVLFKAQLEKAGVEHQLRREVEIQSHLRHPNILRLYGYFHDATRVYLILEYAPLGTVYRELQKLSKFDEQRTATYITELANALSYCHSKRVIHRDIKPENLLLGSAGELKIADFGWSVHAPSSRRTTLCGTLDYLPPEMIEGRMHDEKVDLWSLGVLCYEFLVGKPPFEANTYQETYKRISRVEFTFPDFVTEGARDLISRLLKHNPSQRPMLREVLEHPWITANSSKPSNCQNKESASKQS

[10] = biological target: RAC-alpha serine/threonine-protein kinase (Homo sapiens, UniProt P31749);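 also: AKT1 affinity measured as one member of a kinome-wide kinase profiling panel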
[11] = biological target: cAMP-dependent protein kinase catalytic subunit alpha (Homo sapiens, UniProt P17612)
[12] = biological target: Leucine-rich repeat serine/threonine-protein kinase 2 (Homo sapiens, UniProt Q5S007);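 also: value from a broad kinome-wide panel profiling study in which LRRK2 was one of the kinases tested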
[13] = biological target: Dual specificity tyrosine-phosphorylation-regulated kinase 1A (Homo sapiens, UniProt Q13627);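 also: measured against DYRK1A as one member of a broad kinome profiling panel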
[14] = biological target: Serine/threonine-protein kinase TBK1 (Homo sapiens, UniProt Q9UHD2); assay: Navigating the Kinome. Panel member name: TBK1
Misshapen-like kinase 1 = Misshapen-like kinase 1 (Homo sapiens, UniProt Q8N4C8);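 also: kinome panel screen with MINK as the panel member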
[15] = biological target: Dual specificity mitogen-activated protein kinase kinase 1 (Homo sapiens, UniProt Q02750); assay: Navigating the Kinome. Panel member name: MAP2K1
[16] = biological target: BDNF/NT-3 growth factors receptor (Homo sapiens, UniProt Q16620);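 also: NTRK2 measured as one member of a broad kinome-wide kinase profiling panel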
[17] = biological target: Vascular endothelial growth factor receptor 2 (Homo sapiens, UniProt P35968)
[18] = biological target: Mitogen-activated protein kinase 13 (Homo sapiens, UniProt O15264)
[19] = biological target: Leukocyte tyrosine kinase receptor (Homo sapiens, UniProt P29376); assay: Navigating the Kinome. Panel member name: LTK
[20] = biological target: Interleukin-1 receptor-associated kinase 1 (Homo sapiens, UniProt P51617);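 also: IRAK1 tested as one member of a kinome panel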
[21] = biological target: Tyrosine-protein kinase receptor TYRO3 (Homo sapiens, UniProt Q06418);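 also: TYRO3 value obtained as one member of a kinome-wide profiling panel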
[22] = biological target: Serine/threonine-protein kinase BRSK1 (Homo sapiens, UniProt Q8TDC3);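 also: measured within a kinome-wide kinase panel, with the target listed as KIAA1811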
[23] = biological target: Proto-oncogene tyrosine-protein kinase Src (Homo sapiens, UniProt P12931);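 also: SRC entry within a kinome-wide kinase profiling panel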
[24] = biological target: Cyclin-dependent kinase 19 (Homo sapiens, UniProt Q9BWU1); assay: Navigating the Kinome. Panel member name: CDC2L6
[25] = biological target: Serine/threonine-protein kinase 17A (Homo sapiens, UniProt Q9UEE5)
Activated CDC42 kinase 1 = Activated CDC42 kinase 1 (Homo sapiens, UniProt Q07912); assay: Navigating the Kinome. Panel member name: ACK1
[26] = biological target: Platelet-derived growth factor receptor alpha (Homo sapiens, UniProt P16234); assay: Navigating the Kinome. Panel member name: PDGFRA
[27] = biological target: cAMP-dependent protein kinase catalytic subunit PRKX (Homo sapiens, UniProt P51817)
[28] = biological target: Maternal embryonic leucine zipper kinase (Homo sapiens, UniProt Q14680)
[29] = biological target: Calcium/calmodulin-dependent protein kinase type II subunit delta (Homo sapiens, UniProt Q13557)
[30] = biological target: Fibroblast growth factor receptor 1 (Homo sapiens, UniProt P11362)
[31] = biological target: Insulin-like growth factor 1 receptor (Homo sapiens, UniProt P08069); assay: Navigating the Kinome. Panel member name: IGF1R
[32] = biological target: Mitogen-activated protein kinase kinase kinase kinase 2 (Homo sapiens, UniProt Q12851);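 also: measured as one member of a kinome-wide kinase panel, with MAP4K2 as the panel entry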
[33] = biological target: Hepatocyte growth factor receptor (Homo sapiens, UniProt P08581);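 also: kinase panel profiling across the kinome, with MET as the panel member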
[34] = biological target: Protein kinase C delta type (Homo sapiens, UniProt Q05655)
[35] = biological target: Macrophage colony-stimulating factor 1 receptor (Homo sapiens, UniProt P07333);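 also: value comes from the Navigating the Kinome screening panel, CSF1R member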
Focal adhesion kinase 1 = Focal adhesion kinase 1 (Homo sapiens, UniProt Q05397);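 also: measured as one member of a kinome panel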
[36] = biological target: Mitogen-activated protein kinase kinase kinase kinase 4 (Homo sapiens, UniProt O95819)
[37] = NIH-3T3 fibroblast cytotoxicity, dose response, cytotoxicity control, cell-based, fluorescence, Alamar Blue, secondary assay (AID 2327);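 also: NIH-3T3 mouse fibroblasts cultured with fluconazole at 8 µg/mL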

Chain of Leukocyte tyrosine kinase receptor (P29376 whole entry): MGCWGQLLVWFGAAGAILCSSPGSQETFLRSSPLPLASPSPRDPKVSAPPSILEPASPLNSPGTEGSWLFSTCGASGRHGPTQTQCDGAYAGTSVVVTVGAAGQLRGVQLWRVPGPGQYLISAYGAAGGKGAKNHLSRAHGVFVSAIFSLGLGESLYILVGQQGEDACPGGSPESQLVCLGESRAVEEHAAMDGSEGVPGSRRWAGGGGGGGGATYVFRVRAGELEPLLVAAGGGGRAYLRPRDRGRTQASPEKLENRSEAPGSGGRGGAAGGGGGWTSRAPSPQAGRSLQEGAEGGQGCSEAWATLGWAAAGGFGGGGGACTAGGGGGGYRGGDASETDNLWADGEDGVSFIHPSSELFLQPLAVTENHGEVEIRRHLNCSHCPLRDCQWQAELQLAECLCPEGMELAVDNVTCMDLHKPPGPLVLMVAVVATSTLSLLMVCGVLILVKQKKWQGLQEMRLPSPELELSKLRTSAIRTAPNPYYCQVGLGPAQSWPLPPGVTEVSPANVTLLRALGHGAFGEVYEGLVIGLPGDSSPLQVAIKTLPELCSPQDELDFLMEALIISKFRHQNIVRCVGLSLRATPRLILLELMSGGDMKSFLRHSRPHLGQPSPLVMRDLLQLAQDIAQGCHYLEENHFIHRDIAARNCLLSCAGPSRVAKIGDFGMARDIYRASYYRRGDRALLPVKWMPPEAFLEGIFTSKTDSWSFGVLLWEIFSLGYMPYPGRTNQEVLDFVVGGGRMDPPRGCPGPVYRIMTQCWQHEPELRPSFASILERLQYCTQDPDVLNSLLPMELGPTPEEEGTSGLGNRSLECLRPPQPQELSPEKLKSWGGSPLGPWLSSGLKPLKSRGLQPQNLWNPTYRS
Chain of Mitogen-activated protein kinase 14 (Q16539 whole entry): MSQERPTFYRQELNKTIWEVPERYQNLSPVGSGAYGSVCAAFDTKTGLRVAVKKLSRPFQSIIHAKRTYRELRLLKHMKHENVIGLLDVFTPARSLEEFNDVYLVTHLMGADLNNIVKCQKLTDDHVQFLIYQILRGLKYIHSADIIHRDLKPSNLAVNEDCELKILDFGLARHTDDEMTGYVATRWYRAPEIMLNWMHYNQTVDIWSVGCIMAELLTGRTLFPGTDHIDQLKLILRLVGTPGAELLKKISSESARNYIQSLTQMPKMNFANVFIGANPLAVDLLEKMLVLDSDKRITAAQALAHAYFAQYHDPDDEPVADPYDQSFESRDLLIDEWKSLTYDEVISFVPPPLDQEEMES
Chain of Hepatocyte growth factor receptor (P08581 whole entry): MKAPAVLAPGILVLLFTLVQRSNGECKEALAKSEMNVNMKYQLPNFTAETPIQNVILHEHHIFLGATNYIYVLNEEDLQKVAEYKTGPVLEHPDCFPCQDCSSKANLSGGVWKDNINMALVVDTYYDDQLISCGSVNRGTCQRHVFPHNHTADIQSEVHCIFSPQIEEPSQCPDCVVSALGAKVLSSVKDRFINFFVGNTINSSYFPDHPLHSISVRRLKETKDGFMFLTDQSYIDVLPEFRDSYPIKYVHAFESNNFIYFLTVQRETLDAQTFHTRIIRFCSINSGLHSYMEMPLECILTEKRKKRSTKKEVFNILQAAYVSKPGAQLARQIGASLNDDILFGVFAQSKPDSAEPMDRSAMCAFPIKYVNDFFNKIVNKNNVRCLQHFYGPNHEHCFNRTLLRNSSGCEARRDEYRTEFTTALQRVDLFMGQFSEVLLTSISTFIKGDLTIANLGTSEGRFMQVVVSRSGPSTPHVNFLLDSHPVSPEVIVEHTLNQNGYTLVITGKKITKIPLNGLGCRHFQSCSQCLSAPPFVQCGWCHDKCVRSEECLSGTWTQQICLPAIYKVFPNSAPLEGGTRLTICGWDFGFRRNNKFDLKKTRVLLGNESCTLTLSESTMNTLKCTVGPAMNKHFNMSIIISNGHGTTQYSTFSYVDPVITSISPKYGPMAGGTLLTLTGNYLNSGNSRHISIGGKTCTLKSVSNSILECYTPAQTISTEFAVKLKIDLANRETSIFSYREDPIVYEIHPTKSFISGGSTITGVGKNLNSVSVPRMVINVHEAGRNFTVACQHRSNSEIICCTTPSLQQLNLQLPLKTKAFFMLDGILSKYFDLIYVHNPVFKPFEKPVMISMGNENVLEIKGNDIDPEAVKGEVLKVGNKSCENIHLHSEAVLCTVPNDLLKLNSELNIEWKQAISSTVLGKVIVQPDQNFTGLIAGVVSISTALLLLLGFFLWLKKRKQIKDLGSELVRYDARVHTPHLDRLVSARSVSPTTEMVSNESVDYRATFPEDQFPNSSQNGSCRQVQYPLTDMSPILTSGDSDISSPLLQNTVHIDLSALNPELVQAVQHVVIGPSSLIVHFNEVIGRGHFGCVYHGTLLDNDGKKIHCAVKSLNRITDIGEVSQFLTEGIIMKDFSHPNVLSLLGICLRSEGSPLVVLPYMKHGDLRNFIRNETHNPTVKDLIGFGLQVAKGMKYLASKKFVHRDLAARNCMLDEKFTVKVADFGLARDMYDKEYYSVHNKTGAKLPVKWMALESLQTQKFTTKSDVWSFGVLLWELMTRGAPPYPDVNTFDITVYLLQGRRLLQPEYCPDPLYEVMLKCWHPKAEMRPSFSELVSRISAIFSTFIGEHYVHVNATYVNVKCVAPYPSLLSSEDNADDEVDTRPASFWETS
Chain of Serine/threonine-protein kinase 17A (Q9UEE5 whole entry): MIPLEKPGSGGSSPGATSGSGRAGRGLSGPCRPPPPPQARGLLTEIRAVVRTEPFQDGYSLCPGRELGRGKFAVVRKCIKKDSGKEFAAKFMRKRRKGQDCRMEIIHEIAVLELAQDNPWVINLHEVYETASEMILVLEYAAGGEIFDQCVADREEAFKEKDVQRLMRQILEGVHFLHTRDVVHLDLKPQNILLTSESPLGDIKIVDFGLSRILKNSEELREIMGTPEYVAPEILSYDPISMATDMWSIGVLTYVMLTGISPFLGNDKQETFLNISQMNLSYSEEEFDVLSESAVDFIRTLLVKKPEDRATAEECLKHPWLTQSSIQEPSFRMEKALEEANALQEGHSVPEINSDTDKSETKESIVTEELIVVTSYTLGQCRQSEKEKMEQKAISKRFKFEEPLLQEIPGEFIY
Chain of Serine/threonine-protein kinase TBK1 (Q9UHD2 whole entry): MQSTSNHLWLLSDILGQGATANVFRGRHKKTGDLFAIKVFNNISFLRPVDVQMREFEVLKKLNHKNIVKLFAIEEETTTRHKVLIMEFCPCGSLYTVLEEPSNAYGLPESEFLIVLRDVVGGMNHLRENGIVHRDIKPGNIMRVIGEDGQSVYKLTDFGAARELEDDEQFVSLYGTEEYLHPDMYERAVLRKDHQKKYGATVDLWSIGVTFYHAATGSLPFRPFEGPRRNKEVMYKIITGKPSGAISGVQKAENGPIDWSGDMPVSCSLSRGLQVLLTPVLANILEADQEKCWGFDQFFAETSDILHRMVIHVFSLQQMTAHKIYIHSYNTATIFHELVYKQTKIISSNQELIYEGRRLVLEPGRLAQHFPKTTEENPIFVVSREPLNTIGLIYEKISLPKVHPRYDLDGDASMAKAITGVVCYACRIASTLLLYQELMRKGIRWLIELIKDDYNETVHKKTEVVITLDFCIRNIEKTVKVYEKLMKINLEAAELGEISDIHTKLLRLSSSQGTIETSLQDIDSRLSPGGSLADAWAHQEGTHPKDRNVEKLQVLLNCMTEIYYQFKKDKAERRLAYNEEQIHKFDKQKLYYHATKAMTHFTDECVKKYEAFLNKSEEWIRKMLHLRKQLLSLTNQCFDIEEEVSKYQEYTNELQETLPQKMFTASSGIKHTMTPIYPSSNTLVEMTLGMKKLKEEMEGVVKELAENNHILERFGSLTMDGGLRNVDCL
Chain of BDNF/NT-3 growth factors receptor (Q16620 whole entry): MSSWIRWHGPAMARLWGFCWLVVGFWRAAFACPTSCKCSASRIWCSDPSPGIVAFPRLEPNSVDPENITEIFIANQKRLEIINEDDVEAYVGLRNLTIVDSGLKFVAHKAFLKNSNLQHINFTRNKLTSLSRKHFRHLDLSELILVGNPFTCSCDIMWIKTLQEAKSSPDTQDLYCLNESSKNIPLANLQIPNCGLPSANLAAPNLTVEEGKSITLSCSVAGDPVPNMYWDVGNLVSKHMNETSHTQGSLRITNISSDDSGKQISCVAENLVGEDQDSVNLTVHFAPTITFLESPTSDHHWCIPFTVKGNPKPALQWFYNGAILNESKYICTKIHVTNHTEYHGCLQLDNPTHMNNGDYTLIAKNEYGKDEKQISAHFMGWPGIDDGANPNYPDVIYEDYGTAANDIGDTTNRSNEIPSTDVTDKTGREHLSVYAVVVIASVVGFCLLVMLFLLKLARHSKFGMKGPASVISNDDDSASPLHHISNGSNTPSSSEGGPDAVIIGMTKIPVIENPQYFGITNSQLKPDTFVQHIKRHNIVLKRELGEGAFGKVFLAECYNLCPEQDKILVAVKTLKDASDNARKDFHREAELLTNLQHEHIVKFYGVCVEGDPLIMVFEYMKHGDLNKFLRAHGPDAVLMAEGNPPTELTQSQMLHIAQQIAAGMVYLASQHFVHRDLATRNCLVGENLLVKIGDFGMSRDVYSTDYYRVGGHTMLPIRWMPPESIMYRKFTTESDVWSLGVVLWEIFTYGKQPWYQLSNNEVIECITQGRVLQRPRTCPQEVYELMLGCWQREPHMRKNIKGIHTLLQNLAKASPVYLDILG
Chain of Dual specificity mitogen-activated protein kinase kinase 1 (Q02750 whole entry): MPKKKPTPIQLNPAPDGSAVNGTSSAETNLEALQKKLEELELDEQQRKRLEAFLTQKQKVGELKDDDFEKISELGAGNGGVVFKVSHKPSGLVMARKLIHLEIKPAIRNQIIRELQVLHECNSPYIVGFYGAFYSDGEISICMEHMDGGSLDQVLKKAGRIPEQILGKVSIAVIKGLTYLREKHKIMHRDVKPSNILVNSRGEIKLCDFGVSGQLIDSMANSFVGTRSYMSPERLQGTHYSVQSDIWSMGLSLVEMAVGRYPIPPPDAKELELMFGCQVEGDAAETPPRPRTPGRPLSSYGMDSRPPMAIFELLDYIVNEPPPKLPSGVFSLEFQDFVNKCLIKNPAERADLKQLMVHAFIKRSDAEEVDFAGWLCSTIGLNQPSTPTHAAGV

Row | Structure (SMILES) | Ki [1] | Ki [2] | Ki [4] | Ki [6] | Ki [8] | Ki [9] | Ki (Aurora kinase A) | Ki [11] | Ki [12] | Ki [13] | Ki [14] | Ki (Misshapen-like kinase 1) | Ki [15] | Ki [16] | Ki [17] | Ki [19] | Ki [21] | Ki [25] | Ki (Activated CDC42 kinase 1) | Ki [26] | also measured
1 | CS(=O)(=O)N(Cc1ccc2[nH]c(=O)c3cccn3c2c1)C1CC1 | > 2000 nM (inactive) | > 6310 nM (inactive) | > 3980 nM (inactive) | > 1580 nM (inactive) | > 2000 nM (inactive) | 100 nM (active) | > 794 nM (inactive) | > 3980 nM (inactive) | > 2510 nM (inactive) | > 3980 nM (inactive) | > 3160 nM (inactive) | > 7940 nM (inactive) | > 3160 nM (inactive) | > 3980 nM (inactive) | > 5010 nM (inactive) | > 2510 nM (inactive) | > 1580 nM (inactive) | > 3980 nM (inactive) | > 3980 nM (inactive) | > 2510 nM (inactive) | Ki [3]: 251 nM (active); Ki [5]: 251 nM (active); Ki [7]: > 2000 nM (inactive); Ki [10]: 31.6 nM (active); Ki [18]: 251 nM (active); Ki [20]: 158 nM (active); Ki [22]: 200 nM (active); Ki [23]: 1260 nM (active); Ki [24]: > 100000 nM (inactive); Ki [27]: > 1580 nM (inactive); Ki [28]: 200 nM (active); Ki [29]: 251 nM (active); Ki [30]: > 3980 nM (inactive); Ki [31]: > 1260 nM (inactive); Ki [32]: > 2000 nM (inactive); Ki [33]: > 2510 nM (inactive); Ki [34]: > 7940 nM (inactive); Ki [35]: > 1580 nM (inactive)
2 | CS(=O)(=O)Nc1ccc(Nc2ccc3[nH]nc(N)c3c2)cc1 |  |  |  |  |  |  |  |  |  |  |  |  |  |  |  |  |  |  |  |  | Ki (Focal adhesion kinase 1): > 6310 nM (inactive); Ki [36]: > 5010 nM (inactive)
3 | O=C(Nc1n[nH]c2ccc(-c3cn(Cc4ccccc4)nn3)cc12)c1cc(F)ccc1F | 3.98 nM (active) | 126 nM (active) | > 3980 nM (inactive) | 398 nM (active) | 2 nM (active) | 3.16 nM (active) | > 1580 nM (inactive) | > 2510 nM (inactive) | 1260 nM (active) | 50.1 nM (active) | 794 nM (active) | > 2510 nM (inactive) | > 3160 nM (inactive) | > 3980 nM (inactive) | > 2510 nM (inactive) | > 2510 nM (inactive) | > 3160 nM (inactive) | 200 nM (active) | > 3980 nM (inactive) | > 2510 nM (inactive) | Ki (Focal adhesion kinase 1): > 6310 nM (inactive); Ki [27]: 316 nM (active); Ki [28]: 398 nM (active); Ki [29]: > 3160 nM (inactive); Ki [30]: > 3980 nM (inactive); Ki [31]: > 2510 nM (inactive); Ki [32]: > 2510 nM (inactive); Ki [33]: > 2510 nM (inactive); Ki [36]: 2000 nM (active); Ki [35]: > 2510 nM (inactive)
4 | Cc1cc(NC(c2ccc(Cl)cc2)c2ccc3cccnc3c2O)no1 (stereo unspecified) |  |  |  |  |  |  |  |  |  |  |  |  |  |  |  |  |  |  |  |  | EC50 [37]: 22000 nM (active)
